Our source for the TGI and GI50 values is PubChem BioAssay (NCI).

Values joined by “and” are separate entries in the source; they are usually repeats but may differ in a detail not shown here. Equal values may be shown once.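 A five-concentration, 48-hour dose response in 96-well plates underlies each endpoint, interpolated linearly between surrounding concentrations. GI50: concentration for 50% inhibition of growth. TGI marks complete inhibition of growth.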

Among the test systems are OVCAR-5 ovarian; SR leukemia; RXF 393 renal; OVCAR-3 ovarian; A498 renal; MOLT-4 leukemia; 786-0 renal; SF-268 CNS; RPMI-8226 leukemia; TK-10 renal.
Test in all cases: NCI-60 cell line screen, 48 h

Take `COC1(CC[C@@H](C)COC2OC(CO)C(O)C(O)C2O)O[C@H]2C[C@H]3[C@@H]4CC=C5C[C@@H](OC6OC(CO)C(O)C(OC7OC(CO)C(O)C(O)C7O)C6OC6OC(C)C(O)C(O)C6O)CC[C@]5(C)[C@H]4CC[C@]3(C)[C@H]2[C@@H]1C` (some centres not stated): the TGI in the assay on OVCAR-5 ovarian is > 39.4 µM; in the assay on SR leukemia it was > 100 µM; in the assay with RXF 393 renal it was 19.5 µM; with OVCAR-3 ovarian, 32.2 µM; in the assay with A498 renal it was 26.9 µM; in the assay with MOLT-4 leukemia, > 31.6 µM. The TGI with 786-0 renal is 8.33 µM; with SF-268 CNS, 26.4 µM; with RPMI-8226 leukemia, > 88.3 µM; in the assay on TK-10 renal it was 43.8 µM.

Take `O=C(O)[C@H](CCC[C@H]1C(=O)O[C@H](c2ccccc2)[C@H](c2ccccc2)N1C(=O)OCc1ccccc1)N[C@@H](c1ccccc1)[C@H](O)c1ccccc1`: the TGI in the assay on OVCAR-5 ovarian is > 100 µM; in the assay on SR leukemia, 52.3 µM; with RXF 393 renal, 47.9 µM; in the assay with OVCAR-3 ovarian it was 48.4 µM; in the assay on A498 renal it was 62.1 µM; with MOLT-4 leukemia, 62 µM. Further, the TGI was > 100 µM in the assay with 786-0 renal, > 100 µM in the assay on SF-268 CNS, 54 µM in the assay on RPMI-8226 leukemia and > 100 µM with TK-10 renal.

Consider `CC(Oc1ccccc1)C(=O)NNC(=O)OC(C)(C)C` (configuration not stated), for which the TGI in the assay on OVCAR-5 ovarian, in the assay with SR leukemia, with RXF 393 renal, with OVCAR-3 ovarian, in the assay with A498 renal and with MOLT-4 leukemia was > 100 µM each time. The TGI in the assay with 786-0 renal, in the assay with SF-268 CNS, in the assay on RPMI-8226 leukemia and in the assay on TK-10 renal was > 100 µM in each case.

Consider `CC(=O)OCC1OC(n2c(S)c(C#N)c(-c3ccccc3)c(C#N)c2=O)C(OC(C)=O)C(OC(C)=O)C1OC(C)=O` (configuration not stated), for which the GI50 in the assay on OVCAR-5 ovarian is > 100 µM and 39.7 µM; with SR leukemia it was > 100 µM and 32.1 µM; in the assay on OVCAR-3 ovarian, > 100 µM and 19.5 µM; in the assay with A498 renal, > 69 µM and 30.3 µM; with MOLT-4 leukemia, > 100 µM and 23.6 µM; in the assay with RPMI-8226 leukemia it was > 100 µM and 35 µM. In addition, in the assay with TK-10 renal, the GI50 was 90.7 µM and 24.9 µM. Also, the TGI in the assay with OVCAR-5 ovarian is > 100 µM; with SR leukemia it was > 100 µM and 57.7 µM; in the assay on RXF 393 renal, 59.4 µM and 59.1 µM; in the assay on OVCAR-3 ovarian, > 100 µM and 36.9 µM; in the assay with A498 renal it was > 100 µM and 74 µM; in the assay with MOLT-4 leukemia, > 100 µM and 50.8 µM. For the same molecule, the TGI with 786-0 renal is > 100 µM and 83.4 µM; with SF-268 CNS, > 100 µM and 61.7 µM; in the assay on RPMI-8226 leukemia it was > 100 µM and 75 µM; with TK-10 renal, > 100 µM and 86.5 µM.

In the case of `O=c1[nH]cnc2c(COCCO)c[nH]c12`, the TGI with OVCAR-5 ovarian, in the assay with SR leukemia, with RXF 393 renal, with OVCAR-3 ovarian, in the assay on A498 renal and in the assay with MOLT-4 leukemia was > 100 µM in each case. The TGI with 786-0 renal, in the assay on SF-268 CNS, in the assay with RPMI-8226 leukemia and in the assay on TK-10 renal was > 100 µM throughout.

Regarding `C(=Nc1ccc(-c2nc3ccccc3s2)cc1)c1ccc[nH]1`, the TGI in the assay on OVCAR-5 ovarian stood at 51.4 µM; in the assay on SR leukemia it was 49.5 µM; with RXF 393 renal, 31.3 µM; in the assay with OVCAR-3 ovarian it was 39.5 µM; in the assay on A498 renal it was 36.5 µM; with MOLT-4 leukemia it was 38.8 µM. Besides, the TGI was 52.4 µM with 786-0 renal, 52.5 µM in the assay on SF-268 CNS, 55.9 µM with RPMI-8226 leukemia and 64.2 µM in the assay on TK-10 renal.

As for `Cc1nc2cc(Nc3ccccc3C(=O)O)ccc2s1`, the TGI in the assay with OVCAR-5 ovarian, in the assay on SR leukemia, in the assay on RXF 393 renal, with OVCAR-3 ovarian, with A498 renal and with MOLT-4 leukemia was > 100 µM throughout. Further, the TGI in the assay with 786-0 renal, with SF-268 CNS, with RPMI-8226 leukemia and in the assay with TK-10 renal was > 100 µM each time.

As to `CCN1CCC(CNC(=O)c2ccc(N)cc2)N1CC` (configuration not stated), the TGI with OVCAR-5 ovarian, in the assay with SR leukemia, in the assay on RXF 393 renal, in the assay on OVCAR-3 ovarian, with A498 renal and in the assay on MOLT-4 leukemia was > 100 µM each time. Moreover, the TGI in the assay on 786-0 renal, in the assay with SF-268 CNS, in the assay on RPMI-8226 leukemia and in the assay on TK-10 renal was > 100 µM throughout.

As for `Nc1nc(Cl)c(Cl)c(NCC2(O)CCC2)n1`, the TGI with OVCAR-5 ovarian is > 100 µM; with SR leukemia, > 100 µM; with RXF 393 renal, > 100 µM; with OVCAR-3 ovarian, > 100 µM; with A498 renal, 97 µM; in the assay with MOLT-4 leukemia, > 100 µM. Also, the TGI in the assay with 786-0 renal, in the assay with SF-268 CNS, with RPMI-8226 leukemia and with TK-10 renal was > 100 µM throughout.

Turning to `Cc1ccc2c(c1)nc1n2C(N)=Nc2ccccc2S1`, the TGI with OVCAR-5 ovarian was > 100 µM; with SR leukemia, > 100 µM; in the assay with RXF 393 renal it was > 100 µM; in the assay on OVCAR-3 ovarian it was > 100 µM; with A498 renal, > 91.6 µM; in the assay with MOLT-4 leukemia, > 100 µM. For the same molecule, the TGI in the assay with 786-0 renal, with SF-268 CNS, with RPMI-8226 leukemia and with TK-10 renal was > 100 µM throughout.

With `CC1(C)COC2=C(C1)C(=O)c1ccccc1C2=O`, the TGI was found to be 3.15 µM in the assay with OVCAR-5 ovarian; 8.37 µM in the assay with SR leukemia; 3.51 µM with RXF 393 renal; 2.06 µM in the assay with OVCAR-3 ovarian; 3.56 µM with A498 renal; 3.91 µM in the assay on MOLT-4 leukemia. For the same molecule, the TGI with 786-0 renal stood at 3.29 µM; in the assay with SF-268 CNS it was 3.57 µM; in the assay with RPMI-8226 leukemia it was 4.45 µM; in the assay with TK-10 renal, 3.19 µM.

Consider `CC1=C(C)CC2(C=C(C(C)(C)C)C(=O)C(C(C)(C)C)=C2)SC1`, for which the TGI in the assay with OVCAR-5 ovarian is 35.7 µM; in the assay with SR leukemia, > 100 µM; in the assay on RXF 393 renal it was 38.7 µM; in the assay with OVCAR-3 ovarian, 36.1 µM; in the assay with A498 renal, 35.4 µM; in the assay on MOLT-4 leukemia it was > 100 µM. Further, the TGI in the assay with 786-0 renal turned out to be 36 µM; in the assay on SF-268 CNS, 46.6 µM; with RPMI-8226 leukemia, 33.8 µM; in the assay on TK-10 renal it was 37.9 µM.

Turning to `CCC(C)C1=C(O)[N+]2([O-])Oc3ccc(-c4c(O)c(O)c(-c5ccc(OC(C)=O)cc5)c(OC(C)=O)c4OC(C)=O)cc3OC2(C(C)CC)C(=O)N1O` (configuration not stated), the TGI with OVCAR-5 ovarian, with SR leukemia, in the assay with RXF 393 renal, in the assay on OVCAR-3 ovarian, with A498 renal and in the assay with MOLT-4 leukemia was > 50 µM throughout. Besides, the TGI in the assay on 786-0 renal, in the assay on SF-268 CNS, in the assay with RPMI-8226 leukemia and in the assay on TK-10 renal was > 50 µM throughout.

Turning to `O=C(/C(=C\I)c1ccccc1)c1ccccc1`, the TGI in the assay with OVCAR-5 ovarian stood at 33.1 µM; with SR leukemia, 41 µM; in the assay on RXF 393 renal it was 11.7 µM; in the assay on OVCAR-3 ovarian, 5.71 µM; with A498 renal, 30.3 µM; with MOLT-4 leukemia, 86.5 µM. The TGI with 786-0 renal was 14.6 µM; in the assay on SF-268 CNS it was > 46.2 µM; in the assay with RPMI-8226 leukemia, > 21.2 µM; in the assay on TK-10 renal it was 29.8 µM.

With `[N-]=[N+]=CC(=O)OCCCCl`, the TGI with OVCAR-5 ovarian, in the assay with SR leukemia, with RXF 393 renal, with OVCAR-3 ovarian, with A498 renal and in the assay with MOLT-4 leukemia was > 100 µM in each case. For the same molecule, the TGI with 786-0 renal, in the assay on SF-268 CNS, in the assay with RPMI-8226 leukemia and with TK-10 renal was > 100 µM throughout.

As to `Cc1ccc2nc(-c3ccc(C(C)(C)C)cc3)oc(=O)c2c1`, the TGI with OVCAR-5 ovarian is 89.5 µM; in the assay with SR leukemia, 59.7 µM; in the assay on RXF 393 renal, 88.5 µM; in the assay on OVCAR-3 ovarian, 60.9 µM; with A498 renal, 62.8 µM; in the assay with MOLT-4 leukemia, 39.3 µM. Besides, the TGI in the assay on 786-0 renal is 68.2 µM; in the assay on SF-268 CNS it was 70.7 µM; with RPMI-8226 leukemia it was 48.9 µM; in the assay with TK-10 renal it was > 100 µM.

Take `C=C(Cl)C(Cl)(CCl)CCC(Br)C(C)(C)Br` (configuration not stated): the TGI in the assay with OVCAR-5 ovarian, in the assay on SR leukemia, in the assay on RXF 393 renal, with OVCAR-3 ovarian, with A498 renal and in the assay with MOLT-4 leukemia was > 10 µM each time. Also, the TGI with 786-0 renal, with SF-268 CNS, in the assay on RPMI-8226 leukemia and in the assay with TK-10 renal was > 10 µM in each case.

Consider `O=C1C(c2c(O)[nH]c3ccc(Br)cc23)=Nc2ccc(Br)cc21`, for which the TGI with OVCAR-5 ovarian was > 100 µM; with SR leukemia it was > 100 µM; in the assay on RXF 393 renal, 40.7 µM; in the assay with OVCAR-3 ovarian, > 100 µM; with A498 renal it was > 100 µM; in the assay with MOLT-4 leukemia, > 100 µM. Further, the TGI is 46.9 µM with 786-0 renal, > 100 µM with SF-268 CNS, > 100 µM with RPMI-8226 leukemia and > 100 µM in the assay with TK-10 renal.
